Source: patent publication US10561638B2, “Methods for treating dependence” (Biotie Therapies, Inc., priority 2007, dated 2020)

Assays:
α2A adrenoceptors = α2A adrenoceptors (Homo sapiens, UniProt P08913); assay: Radioligand binding assay
Procedure: (§1) The activity of nepicastat at twelve selected enzymes and receptors was determined using established assays. Binding data were analyzed by iterative curve-fitting to a four parameter logistic equation. Ki values were calculated from IC50 values using the Cheng-Prusoff equation. Enzyme inhibitory activity was expressed as IC50 (concentration required to produce 50% inhibition of enzyme activity).
(§2) The activity of nepicastat at eleven different enzymes was determined using established assays. The affinity of nepicastat for thirteen selected receptors was determined by radioligand binding assays using standard filtration techniques and membrane preparations. Binding data were analyzed by iterative curve fitting to a four parameter logistic equation. Ki values were calculated using the Cheng-Prusoff equation.

α1A adrenoceptors = α1A adrenoceptors (Homo sapiens, UniProt P35348); assay: Radioligand binding assay
Sequence of α1A adrenoceptors (P35348 whole entry): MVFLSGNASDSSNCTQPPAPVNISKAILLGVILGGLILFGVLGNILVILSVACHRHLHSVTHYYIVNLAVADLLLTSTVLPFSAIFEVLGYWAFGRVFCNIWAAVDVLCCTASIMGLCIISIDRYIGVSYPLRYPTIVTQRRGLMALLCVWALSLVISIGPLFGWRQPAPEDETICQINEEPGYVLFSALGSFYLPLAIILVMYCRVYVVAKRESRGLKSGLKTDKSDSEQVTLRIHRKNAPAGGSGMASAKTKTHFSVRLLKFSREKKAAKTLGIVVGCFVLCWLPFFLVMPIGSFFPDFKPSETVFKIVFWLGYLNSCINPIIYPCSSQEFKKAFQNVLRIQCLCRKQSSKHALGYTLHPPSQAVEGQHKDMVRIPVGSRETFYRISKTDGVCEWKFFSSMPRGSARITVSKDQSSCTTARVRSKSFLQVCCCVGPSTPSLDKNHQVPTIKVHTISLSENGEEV
Procedure: as §1, §2

α2B adrenoceptors = α2B adrenoceptors (Homo sapiens, UniProt P18089); assay: Radioligand binding assay
Sequence of α2B adrenoceptors (P18089 whole entry): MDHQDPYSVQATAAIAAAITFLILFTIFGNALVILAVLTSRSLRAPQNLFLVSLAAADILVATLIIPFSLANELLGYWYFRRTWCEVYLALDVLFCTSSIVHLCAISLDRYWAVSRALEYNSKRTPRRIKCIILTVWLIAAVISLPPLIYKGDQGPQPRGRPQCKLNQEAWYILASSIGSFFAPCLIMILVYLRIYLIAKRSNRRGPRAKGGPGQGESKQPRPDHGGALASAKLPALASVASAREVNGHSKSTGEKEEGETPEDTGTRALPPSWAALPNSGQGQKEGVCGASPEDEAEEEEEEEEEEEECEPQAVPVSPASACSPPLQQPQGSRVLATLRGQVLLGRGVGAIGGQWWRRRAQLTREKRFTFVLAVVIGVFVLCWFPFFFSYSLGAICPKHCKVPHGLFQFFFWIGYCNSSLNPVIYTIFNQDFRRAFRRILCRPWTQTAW
Procedure: as §1, §2

μ opioid receptors = μ opioid receptors (Homo sapiens, UniProt P35372); assay: Radioligand binding assay
Sequence of μ opioid receptors (P35372 whole entry): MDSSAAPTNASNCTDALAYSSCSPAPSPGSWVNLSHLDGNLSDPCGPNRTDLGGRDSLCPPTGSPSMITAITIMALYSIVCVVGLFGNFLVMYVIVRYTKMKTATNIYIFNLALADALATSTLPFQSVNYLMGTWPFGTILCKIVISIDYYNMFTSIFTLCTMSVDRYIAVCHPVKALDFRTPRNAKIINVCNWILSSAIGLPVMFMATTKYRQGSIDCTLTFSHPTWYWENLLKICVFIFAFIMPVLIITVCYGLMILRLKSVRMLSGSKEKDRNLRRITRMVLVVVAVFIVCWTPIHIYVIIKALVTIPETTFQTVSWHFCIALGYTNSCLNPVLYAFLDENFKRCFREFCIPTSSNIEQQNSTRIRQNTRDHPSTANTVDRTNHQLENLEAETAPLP
Procedure: as §1, §2

β2 adrenoceptors = β2 adrenoceptors (Homo sapiens, UniProt P07550); assay: Radioligand binding assay
Sequence of β2 adrenoceptors (P07550 whole entry): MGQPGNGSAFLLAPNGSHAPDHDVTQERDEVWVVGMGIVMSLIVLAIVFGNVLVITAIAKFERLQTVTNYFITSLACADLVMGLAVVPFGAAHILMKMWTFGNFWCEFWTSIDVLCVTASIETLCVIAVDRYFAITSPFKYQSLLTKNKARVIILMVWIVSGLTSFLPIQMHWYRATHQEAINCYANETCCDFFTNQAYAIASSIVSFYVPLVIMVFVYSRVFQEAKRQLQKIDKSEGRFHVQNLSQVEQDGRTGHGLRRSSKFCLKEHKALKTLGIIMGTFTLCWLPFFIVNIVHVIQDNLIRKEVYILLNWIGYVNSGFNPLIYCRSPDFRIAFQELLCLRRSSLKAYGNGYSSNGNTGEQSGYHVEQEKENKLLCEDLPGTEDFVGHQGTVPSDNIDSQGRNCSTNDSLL
Procedure: as §1, §2

α1B adrenoceptors = α1B adrenoceptors (Homo sapiens, UniProt P35368); assay: Radioligand binding assay
Sequence of α1B adrenoceptors (P35368 whole entry): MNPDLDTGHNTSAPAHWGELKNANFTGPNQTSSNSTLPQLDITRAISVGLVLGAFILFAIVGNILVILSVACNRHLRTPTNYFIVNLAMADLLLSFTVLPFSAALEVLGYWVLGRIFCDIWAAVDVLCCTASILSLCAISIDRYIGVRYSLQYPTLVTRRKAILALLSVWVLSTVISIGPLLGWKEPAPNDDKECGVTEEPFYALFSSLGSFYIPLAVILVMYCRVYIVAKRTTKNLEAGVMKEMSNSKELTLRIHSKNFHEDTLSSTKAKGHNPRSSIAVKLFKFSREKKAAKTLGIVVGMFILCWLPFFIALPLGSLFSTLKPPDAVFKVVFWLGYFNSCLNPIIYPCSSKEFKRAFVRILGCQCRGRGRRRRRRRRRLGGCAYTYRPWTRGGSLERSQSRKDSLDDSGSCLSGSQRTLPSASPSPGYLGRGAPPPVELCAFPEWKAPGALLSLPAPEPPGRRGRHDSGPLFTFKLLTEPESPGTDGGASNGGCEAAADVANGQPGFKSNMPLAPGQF
Procedure: as §1, §2

β1 adrenoceptors = β1 adrenoceptors (Homo sapiens, UniProt P08588); assay: Radioligand binding assay
Sequence of β1 adrenoceptors (P08588 whole entry): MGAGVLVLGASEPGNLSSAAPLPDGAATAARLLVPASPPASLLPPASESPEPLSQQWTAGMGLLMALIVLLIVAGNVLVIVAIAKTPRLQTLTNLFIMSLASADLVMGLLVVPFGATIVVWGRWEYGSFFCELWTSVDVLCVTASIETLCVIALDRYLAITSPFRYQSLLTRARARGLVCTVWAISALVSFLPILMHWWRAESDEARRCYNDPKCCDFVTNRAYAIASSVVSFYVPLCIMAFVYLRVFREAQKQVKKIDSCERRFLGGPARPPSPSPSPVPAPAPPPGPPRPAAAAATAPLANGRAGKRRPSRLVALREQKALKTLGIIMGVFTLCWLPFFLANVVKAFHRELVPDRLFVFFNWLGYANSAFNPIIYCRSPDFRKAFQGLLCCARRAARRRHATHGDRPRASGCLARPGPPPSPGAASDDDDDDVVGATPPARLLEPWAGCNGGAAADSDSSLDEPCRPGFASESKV
Procedure: as §1, §2

normal dogs = assay: Cardiovascular effects of i.v. dosing in dogs; type: in vivo; settings: anesthetized dogs, 1-10 mg/kg i.v., up to five hours
alpha1 receptors = assay: Radioligand filtration binding (Example 19)
Procedure: (§3) The affinity of nepicastat was determined in the bindings assays outlined using standard radioligand filtration binding methods were used. Competition binding data were analyzed by iterative curve fitting to a four parameter logistic equation. Hill coefficients and IC50 were obtained directly. pKi (−log of Ki) of competing ligands were calculated from IC50 values using the Cheng-Prusoff equation.

[1] = biological target: all other receptors examined; assay: Radioligand filtration binding (Example 19)
Procedure: as §3

[2] = test system: left ventricular [3H] CGP-12177 binding sites; assay: [3H] CGP-12177 saturation binding in left ventricle membranes of treated dogs; design: species or system beagle dogs; settings: 10 mg/kg/day for 4.5 days
Procedure: Ventricles were homogenized in 50 mM Tris-HCl, 5 mM Na2EDTA buffer (pH 7.4 at 4° C.) using a Polytron P-10 tissue disrupter (setting 10, 2×15 second bursts). Homogenates were centrifuged at 500×g for 10 minutes and the supernatants stored on ice. The pellets were washed by resuspension and centrifugation at 500×g and the supernatants combined. The combined supernatants were centrifuged at 48,000×g for 20 minutes. The pellets were washed by resuspension and centrifugation once in homogenizing buffer and twice in 50 mM Tris-HCl, 0.5 mM EDTA buffer (pH 7.4 at 4° C.). Membranes were stored at −70° C. until required. Saturation experiments were conducted using [^3H] CGP-12177 in buffer containing 50 mM Tris-HCl, 0.5 mM EDTA (pH 7.4 at 32° C.). Non-specific binding was defined by 10 μM isoproterenol. Total bound, non-specific bound and total count tubes were set up for eight concentrations of [^3H] […] Aquasol scintillation fluid was added to each vial and radioactivity determined by liquid scintillation counting. Saturation binding isotherms were analyzed after first converting total ligand concentrations to free ligand concentrations (total−bound=free). […] Tissue catecholamine levels were analyzed by comparing nepicastat-treated groups with the placebo (control) treated groups. […] Additionally, a linear orthogonal contrast was calculated for all three doses within the context of a one-way ANOVA. […]

[3] = test system: brain dopamine/norepinephrine ratio; assay: Dopamine/norepinephrine ratios in the brain of rodents; settings: in vivo
Procedure: Dopamine/norepinephrine ratios in the brain of rodents treated with nepicastat were determined. Dopamine/norepinephrine ratios increased in the brains of rodents treated with nepicastat or disulfuram.

[4] = test system: tissue norepinephrine and dopamine levels; assay: Tissue catecholamines in Sprague-Dawley rats after single oral dose; type: in vivo
Procedure: In SHRs there were significant changes in the dopamine/norepinephrine ratio in the mesenteric artery at doses of 0.3 mg/kg, in the left ventricle at 3.0 mg/kg, and in the cerebral cortex at 10 mg/kg. […] In a second dose-response study in SHRs, three doses were administered 12 hours apart at either 3.0, 10, 30, or 100 mg/kg, and tissue was harvested six hours after the third dose. Nepicastat caused a significant dose dependent decrease in norepinephrine (10 mg/kg) and increase in dopamine (3.0 mg/kg) and the dopamine/norepinephrine ratio (3.0 mg/kg) in the left ventricle and mesenteric artery. The effects of nepicastat on dopamine and norepinephrine concentrations, and the dopamine/norepinephrine ratio in the cerebral cortex were significant only at 30 and 100 mg/kg.

Sequence of α2A adrenoceptors (P08913 whole entry): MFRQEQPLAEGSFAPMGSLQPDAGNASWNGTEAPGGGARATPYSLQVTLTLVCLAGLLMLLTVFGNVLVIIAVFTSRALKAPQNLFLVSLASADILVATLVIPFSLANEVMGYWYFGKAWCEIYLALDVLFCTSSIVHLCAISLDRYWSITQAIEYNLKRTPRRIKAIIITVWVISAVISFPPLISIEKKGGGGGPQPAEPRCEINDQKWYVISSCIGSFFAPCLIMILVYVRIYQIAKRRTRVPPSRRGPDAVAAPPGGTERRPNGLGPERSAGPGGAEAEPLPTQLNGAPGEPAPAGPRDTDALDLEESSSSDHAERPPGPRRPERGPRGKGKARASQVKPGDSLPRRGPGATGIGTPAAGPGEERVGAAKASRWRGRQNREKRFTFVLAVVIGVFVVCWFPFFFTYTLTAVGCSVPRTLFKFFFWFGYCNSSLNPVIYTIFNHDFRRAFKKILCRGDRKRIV

Cl.NCc1c[nH]c(=S)n1[C@H]1CCc2c(F)cc(F)cc2C1 [nepicastat, (S)-5-Aminomethyl-1-(5,7-difluoro-1,2,3,4-tetrahydronaphth-2-yl)-2,3-dihydro-2-thioxo-1H-imidazole hydrochloride]
Ki (α2A adrenoceptors): > 10 µM
Ki (α1A adrenoceptors): > 10 µM
Ki (α2B adrenoceptors): > 10 µM
Ki (μ opioid receptors): > 10 µM
Ki (β2 adrenoceptors): > 10 µM
Ki (α1B adrenoceptors): > 10 µM
Ki (β1 adrenoceptors): > 10 µM
cardiovascular effects (normal dogs): no cardiovascular effects
pKi (alpha1 receptors): 6.9-6.7
pKi [1]: < 6.2
left ventricular binding, treated vs vehicle group [2]: no difference
dopamine/norepinephrine ratios in the brain [3]: increased
dose with significant increase in dopamine/norepinephrine ratio ([4]; cerebral cortex, only at this dose): 100 mg/kg
dose with significant increase in dopamine/norepinephrine ratio ([4]; left ventricle, 6 h after single oral dose): 1.0 mg/kg
dose with significant increase in dopamine/norepinephrine ratio ([4]; mesenteric artery, 6 h after single oral dose): 3.0 mg/kg
